Results: paper PMC4329990 (2014)

System: d(C3TA2)3C3/d(T2AG3)4 duplex (DNA, duplex) CCCTAACCCTAACCCTAACCC/TTAGGGTTAGGGTTAGGGTTAGGG
Test: fluorescence titration, IT/IN, modified Benesi-Hildebrand
Details: citrate 10 mM; 10 mM citrate pH 7.0, <1% ethanol, 25 °C

| Ka [M⁻¹] | SMILES |
| --- | --- |
| 10400 | O=c1c(O)c(-c2ccc(O)c(O)c2)oc2cc(O)cc(O)c12 |
| 46200 | O=c1c(O)c(-c2ccc(O)c(O)c2)oc2cc(O)ccc12 |
| 86700 | O=c1c(O)c(-c2ccccc2)oc2ccccc12 |
